Source: paper PMC11048283 (Biology, 2024)
Entries after “also recorded” stand apart in the source; their conditions may differ. Where two headings read alike, the source gives them in different places. Each block holds one compound with its values, some of them ahead of it.

What was measured:
[1] = test system: AipsGOBP2; parameters: method as in PMID 29778539; conditions: cited from earlier work
[2] = molecular target: ScinGOBP2 (Semiothisa cinerearia, UniProt A0A889XLB8); assay: Fluorescence-based competitive binding assay with 1-NPN probe
Experimental: A total of 27 volatile compounds were selected for a fluorescence-based competitive binding assay based on previously reported information for S. cinerearia host plants. This experiment was performed on a spectrofluorometer F-380 (Tianjin, China) using slits of 10 nm and a light path of 1 cm. The fluorescent probe N-phenyl-1-naphthylamine (1-NPN) was excited at 337 nm, and emissions were recorded between 390 and 530 nm. The affinity of 1-NPN for ScinGOBP2 was measured by titrating a 2 μM solution of the protein with aliquots of 1 mM 1-NPN in methanol to final concentrations of 1–16 μM. The dissociation constants of 1-NPN and the proteins were calculated using the software GraphPad Prism 8.0. Competitive binding was measured via the titration of the protein/1-NPN (both at 2 μM) mixture by adding aliquots of 1 mM of methanol solution of ligand to final concentrations of 2–30 μM. Dissociation constants of the competitors were calculated using the equation KD = IC50/(1 + [1-NPN]/K1-NPN), where IC50 represents the ligand concentration achieving a 50% decrease in 1-NPN’s initial fluorescence intensity, [1-NPN] represents the free concentration of 1-NPN, and K1-NPN represents the dissociation constant of the complex ScinGOBP2/1-NPN.

[3] = test system: female S. cinerearia; assay: Two-choice oviposition preference assay; type: in vivo, Semiothisa cinerearia; conditions: 100 μg in paraffin oil vs solvent control; eggs counted after 48 h
Experimental: The oviposition preference of female S. cinerearia for the ScinGOBP2 ligands was assessed in a screened enclosure (length/width/height = 86 cm:46 cm:48 cm). To ensure mating of all the female moths, newly emerged males and females were cohabitated in a rearing enclosure (30 cm × 30 cm × 30 cm) at a sex ratio of 1:2 for a period of 2 days. Mated females for subsequent experiments were randomly selected from this enclosure. Each screened cage housed five gravid females. For adult nourishment, a small Petri dish containing 10% honey solution was positioned at the cage’s base center. Test compounds (100 μg, diluted in paraffin oil) or the solvent control (paraffin oil) were applied to a cotton ball, which was then affixed to the opposite inner sides of the cage. After 48 h, the number of eggs deposited on the gauze on both the treatment and control sides was counted. The oviposition preference index was determined using the formula (T − C)/(T + C), where T represents the egg count on the treatment side and C represents the count on the control side. Each experiment was replicated eight times.

[4] = test system: OachGOBP2; parameters: method as in PMID 36975901; conditions: cited from earlier work
[5] = test system: S. cinerearia antennae; assay: Electroantennogram (EAG) recordings; parameters: species or system Semiothisa cinerearia; conditions: 10 μL of 10 μg/μL in paraffin oil, control subtracted, n = 12
Experimental: Electroantennogram recordings were carried out to measure the antennal responses of S. cinerearia to ScinGOBP2 ligands. The antennae of S. cinerearia adults were carefully removed from the base, and the tips were carefully cut off. The prepared antennae were affixed to electrode holders using conductive electrode gel. Subsequently, a 10 μL aliquot of the test compound (10 μg/μL, diluted in paraffin oil) was applied to a strip of filter paper. This strip was then placed into a 1000 µL pipette tip, serving as a cartridge. The test cartridge was connected to a stimulus controller (CS-55; Syntech, Kirchzarten, Germany) that delivered a 0.5 s stimulus every 30 s at a constant flow rate of 10 mL/s. Antennal signals were recorded using an EAG Pro system (Syntech). In all the experiments, antennae were exposed to a solvent control (paraffin oil) at the beginning and end of a series of sample measurements. Test stimuli were presented in a randomized sequence, interspersed between two control puffs. The EAG responses to the test odors were adjusted by subtracting the mean amplitude of the two control signals. EAG responses were measured from a cohort of twelve insects, each with different antennae (n = 12).

[6] = KD, competitive displacement of 1-NPN, protein/1-NPN both at 2 μM, ligand 2–30 μM, KD = IC50/(1 + [1-NPN]/K1-NPN), mean ± SE
[7] = competitive displacement of 1-NPN, protein/1-NPN both at 2 μM, ligand 2–30 μM, KD = IC50/(1 + [1-NPN]/K1-NPN), mean ± SE, read-out: KD

Sequence of ScinGOBP2 (A0A889XLB8 entry or part of it): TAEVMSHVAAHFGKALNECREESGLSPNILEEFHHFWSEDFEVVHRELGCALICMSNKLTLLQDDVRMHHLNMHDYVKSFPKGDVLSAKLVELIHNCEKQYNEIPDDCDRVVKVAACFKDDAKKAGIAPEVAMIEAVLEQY

SMILES: C=C1CC/C=C(\C)CC[C@@H]2[C@@H]1CC2(C)C [β-caryophyllene]
binding affinity for AipsGOBP2 [1]: high binding affinity

SMILES: c1ccc(Nc2cccc3ccccc23)cc1 [1-NPN, N-phenyl-1-naphthylamine, reference compound]
Kd ([2]; dissociation constant (KD) for the ScinGOBP2/1-NPN complexes, direct titration of 2 μM protein with 1-NPN 1–16 μM): 2.27 µM

SMILES: C=CCCCCCCC [1-Nonene]
Kd [2, 6]: 12.2 ± 0.44 µM | Kd ([2]; competitive displacement of 1-NPN, protein/1-NPN both at 2 μM, ligand 2–30 μM, KD = IC50/(1 + [1-NPN]/K1-NPN), mean ± SE): < 15 µM | Oviposition preference of mated females [3]: deter S. cinerearia from ovipositing; also recorded: marked repellent behavioral responses

SMILES: CC(C)=CCC/C(C)=C/CC/C(C)=C/CO [farnesol]
binding affinity for OachGOBP2 [4]: high binding affinity

Kd [2, 7]: 6.55 ± 0.18 µM
SMILES: CC/C=C\CCOC(=O)CCCC [cis-3-Hexenyl n-valerate]
Oviposition preference of mated females [3]: significant preference for laying eggs; also recorded: significant attractant behavioral responses

SMILES: CC1=CC[C@H](C(C)C)C=C1 [α-phellandrene]
binding affinity for OachGOBP2 [4]: high binding affinity

SMILES: CCCCOC(=O)c1ccccc1C(=O)OCCCC [dibutyl phthalate]
binding affinity for AipsGOBP2 [1]: high binding affinity

SMILES: C=C(C)[C@H]1CC=C(C)CC1 [Dipentene]
Kd [2, 6]: 14.9 ± 0.77 µM | Oviposition preference of mated females [3]: deter S. cinerearia from ovipositing; also recorded: marked repellent behavioral responses | EAG mean response value, females ([5]; female antennae): 0.086 mV

SMILES: CCCCCCCC/C=C\CCCCCCCC(=O)O [oleic acid]
binding affinity for AipsGOBP2 [1]: high binding affinity

SMILES: CC/C=C\CCO [cis-3-hexen-1-ol]
binding affinity for AipsGOBP2 [1]: high binding affinity

Kd [2, 7]: 2.21 ± 0.17 µM
SMILES: CC(=O)CC/C=C(\C)CCC=C(C)C [Geranyl acetone]
Oviposition preference of mated females [3]: deter S. cinerearia from ovipositing; also recorded: marked repellent behavioral responses

SMILES: CC1=CCC2CC1C2(C)C (stereo not drawn) [α-Pinene]
Kd [2, 6]: 9.41 ± 0.28 µM | Oviposition preference of mated females [3]: significant preference for laying eggs; also recorded: significant attractant behavioral responses

Kd [2, 7]: 14.17 ± 0.04 µM
SMILES: CC/C=C\CCOC(=O)CCC [cis-3-Hexenyl butyrate]
Oviposition preference of mated females [3]: significant preference for laying eggs; also recorded: significant attractant behavioral responses

SMILES: C=C1CCC2CC1C2(C)C (stereo not drawn) [β-Pinene]
Kd [2, 6]: 13.2 ± 0.19 µM | Oviposition preference of mated females [3]: deter S. cinerearia from ovipositing; also recorded: marked repellent behavioral responses

Kd [2, 7]: 5.07 ± 0.27 µM
SMILES: CCCCCCCCCC=O [Decanal]
Oviposition preference of mated females [3]: significant preference for laying eggs; also recorded: significant attractant behavioral responses | EAG mean response value, males ([5]; male antennae): 0.063 mV
